Results published in patent publication US7335673B2, “2,3-Diphenylpropionic acid derivatives or their salts, medicines or cell adhesion inhibitors containing the same, and their usage” (Kaken Pharmaceutical Co., Ltd., priority 2001, dated 2008).

Columns and labels:
[1] = VLA-4/VCAM-1 cell adhesion inhibition test; assay type: cell-based; conditions: Homo sapiens; adhesion of BCECF-labeled HL-60 cells to VCAM-1-expressing CHO cells; read-out: 50% Inhibition Concentration
Protocol: VCAM-1-expressing CHO cells were placed in a 96-well cuture plate in an amount of 7×10^3 cells/well, and were cultured in Ham's F-12 medium containing 10 vol % fetal calf serum (FCS) for 3 days until a confluent state was satisfied. HL-60 cells were re-flotated in Hanks' solution containing 0.4 wt % bovine serum albumin (BSA), and fluorescence-labeled by adding 5 μM of 2′,7′-bis(carboxyethyl)-5(6)-carboxy fluorescein pentaacetoxymethyl ester (BCECF-AM). […]
Thus-pretreated HL-60 cells were then stratified in an amount of 2×10^5 cells/well in each well containing the cultured VCAM-1-expressing CHO cells, and allowed to adhere at 37° C. for 5 minutes. […] The cells were washed, destroyed by adding PBS containing 1 vol % NP-40, and fluorescence intensity of the obtained supernatant was measured using a fluorescence measurement system (Millipore, Model cyto Fluor 2300).
Blank experiment was based on fluorescence intensity of PBS containing 1 vol % NP-40. Standard experiment was carried out using the fluorescence-labeled HL-60 suspensions having a concentration of 2×10^5, 10^5, 2×10^4 and 10^4 cells/mL, respectively, where the suspensions were added to PBS containing 1 vol % NP-40, the cells were destroyed, and the fluorescence intensities of the obtained supernatant were measured. […]

LPAM-1/VCAM-1 adhesion = LPAM-1/VCAM-1 adhesion inhibition test

| IC50 [1] [µM] | Structure (SMILES) | inhibition activity in LPAM-1/VCAM-1 adhesion inhibition test (LPAM-1/VCAM-1 adhesion) |
| --- | --- | --- |
| 6 | CC(C)CNc1cccc(C(Cc2ccc(NC(=O)c3c(Cl)cccc3Cl)cc2)C(=O)O)c1 (stereo not drawn) [Example 27] |  |
| 4.1 | COc1ccc(C(Cc2ccc(-c3c(OC)cccc3OC)cc2)C(=O)O)cc1N(CC(C)C)C(=O)C(C)(C)C (stereo not drawn) [Example 106] | showed the inhibition activity |
